Here are results for 18 molecules from publication PMC8954831, “Design, Synthesis, Molecular Docking, and Biological Evaluation of Pyrazole Hybrid Chalcone Conjugates as Potential Anticancer Agents and Tubulin Polymerization Inhibitors” (Pharmaceuticals, 2022).

Series [1] concerns SiHa (cervical cancer cell line). Nature of the series: In vitro cytotoxicity, MTT assay, SiHa. Type of series: cell-based. The note with it: Homo sapiens, 48 h, read-out: IC50 SiHa. The procedure:
(§1) The resultant compounds were tested for their in vitro cytotoxic activity by MTT assay against breast (MCF-7), cervical (SiHa), and prostate (PC-3) cancer cell lines, and the human embryonic kidney cell line (HEK). […] Subsequently, SAR studies were done by investigating the effect of substituents on cytotoxic activity.
(§2) Human cervical cancer cell line SiHa, human breast cancer cell line MCF-7, human prostate cancer cell line PC-3, and human embryonic kidney HEK-293 cells were procured from the National Centre for Cell Sciences (NCCS) Pune, India. In this experiment, antibiotics (100 units/mL penicillin and 100 mg L^−1 streptomycin were grown as a monolayer culture in Dulbecco’s modified Eagle’s medium containing 10% fetal bovine serum) were cultured in a humidified atmosphere of 5% CO2 at 37 °C in T-75 flasks and subcultured twice a week.
(§3) The cytotoxic effects of the selected compounds were evaluated by MTT assay on the above-mentioned cell lines. Initially, 2 × 10^4 cells/well were seeded into 96-well plates (150 µL/well) in triplicates and allowed to grow. The cells were incubated for 24 h and subsequently treated with varying concentrations of the compounds. After 48 h, the cells were incubated with 20 μL of MTT (5 mg/mL in PBS) in a fresh medium for 4 h at 37 °C. MTT is a metabolic substrate that is reduced to give formazan crystals, which were solubilized in DMSO (150 µL/well) and analyzed by reading the absorbance at 540 nm after 15 min of the incubation period on the iMark Microplate Reader (Bio-Rad). Percentage viability and IC50 values were used to determine the relative absorbance of treated versus control (untreated) cells.
Background: Tetrazolium assays rely on reduction of a dye to a coloured formazan, in cell work by metabolically active cells.

Series [2] deals with PC-3 (prostate cancer cell line). Nature of the series: In vitro cytotoxicity, MTT assay, PC-3. The note with it: Homo sapiens, 48 h, read-out: IC50 PC3. It counts as cell-based. On the procedure: as §1, §2, §3
Series [3] concerns the target tubulin (purified brain tubulin) (Sus scrofa, UniProt P02550+P02554). Nature of the series: In vitro tubulin polymerization assay (fluorescence). Type of series: biochemical. The note with it: for inhibition at 10 µM: read-out: % Inhibition of Tubulin Polymerization at 10 µM; for inhibition at 3 µM: read-out: % Inhibition of Tubulin Polymerization. The procedure:
The α and β tubulin subunits are recognized by heterodimers and self-assemble into a stable microtubule in a time-dependent manner. Assessment of the inhibitory effect of new pyrazolic chalcone conjugates on tubulin polymerization was also carried out. The progression of tubulin polymerization was thus examined by monitoring the increase in the fluorescence intensity at 450 nm (excitation wavelength of 360 nm) in a 384-plate for 1 h at 37 °C with and without the conjugate at 10 µM concentration. CA-4 (6 µM) and Vincristine (3 µM) were used as the positive control, whereas paclitaxel (3 µM) was used as the negative control.
Tubulin polymerization is a dynamic process by enhancement of fluorescence intensity due to the combination of a fluorescent reporter into the microtubules as polymerization occurs. Tubulin polymerization was performed by using a purified brain tubulin polymerization kit purchased from Cytoskeleton (BK110P, Denver, CO, USA). The tubulin polymerization assay was monitored by the increase in fluorescence over a 60 min period at 37 °C, with excitation at 360 nm and emission at 450 nm. The final buffer concentration for tubulin polymerization contained 80 mM PIPES, pH 6.9; 2 mM MgCl2; 0.5 mM EGTA; […]; and 15% glycerol. Firstly, 5 µL of the test compounds (final concentration of 10 µM) was added and then warmed to 37 °C for 1 min. The reaction was initiated by adding 50 µL of the tubulin reaction mix as specified for 6 min.

Series [4] has as its system HEK-293 (human embryonic kidney cells). Nature of the series: In vitro cytotoxicity, MTT assay, HEK-293 normal cells. It counts as cell-based. The note with it: for IC50: read-out: IC50 HEK-293. On the procedure:
as §1, §2, §3

In series [5] the test system is MCF-7 (breast cancer cell line). Nature of the series: In vitro cytotoxicity, MTT assay, MCF-7. Type of series: cell-based, human. The procedure:
as §1, §2, §3

The mark [6] stands for this setting: HEK293, MTT, 48 h, human normal cell line.
[7] abbreviates: Homo sapiens, MCF7, MTT, 48 h, breast cancer, read-out: IC50 MCF-7.

Like-named read-outs stand apart in the source and are kept apart here.

A word on the IC50: it is the concentration at which inhibition is half-maximal. By inhibition is commonly meant the relative decrease from the control value, in per cent. One may read the melting point as the temperature of the solid-liquid transition.

tubulin (purified brain tubulin), sequence (P02550 whole entry): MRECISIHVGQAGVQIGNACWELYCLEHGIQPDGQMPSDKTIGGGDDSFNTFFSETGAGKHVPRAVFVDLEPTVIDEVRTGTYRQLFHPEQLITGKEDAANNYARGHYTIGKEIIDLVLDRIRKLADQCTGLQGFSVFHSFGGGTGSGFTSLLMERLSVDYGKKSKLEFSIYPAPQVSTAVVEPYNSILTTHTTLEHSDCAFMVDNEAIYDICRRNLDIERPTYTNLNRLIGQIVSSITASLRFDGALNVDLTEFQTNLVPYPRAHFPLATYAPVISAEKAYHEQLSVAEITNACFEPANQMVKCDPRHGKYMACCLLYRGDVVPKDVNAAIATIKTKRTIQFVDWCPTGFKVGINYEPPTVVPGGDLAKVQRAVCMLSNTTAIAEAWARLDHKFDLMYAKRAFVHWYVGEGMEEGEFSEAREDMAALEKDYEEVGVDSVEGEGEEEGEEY
tubulin (purified brain tubulin), sequence (P02554 whole entry): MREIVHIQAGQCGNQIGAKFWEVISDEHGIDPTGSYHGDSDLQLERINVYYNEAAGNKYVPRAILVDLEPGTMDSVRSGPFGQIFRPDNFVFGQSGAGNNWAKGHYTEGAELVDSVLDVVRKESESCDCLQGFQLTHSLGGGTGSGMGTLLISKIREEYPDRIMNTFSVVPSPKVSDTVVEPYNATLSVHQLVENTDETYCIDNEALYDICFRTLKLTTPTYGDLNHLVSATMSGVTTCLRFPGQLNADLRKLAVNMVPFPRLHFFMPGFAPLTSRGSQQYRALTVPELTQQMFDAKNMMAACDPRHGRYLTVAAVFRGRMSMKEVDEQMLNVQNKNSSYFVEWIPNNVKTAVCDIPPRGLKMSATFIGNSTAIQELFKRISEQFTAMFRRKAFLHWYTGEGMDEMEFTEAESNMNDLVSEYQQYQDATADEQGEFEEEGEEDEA

With `O=C(/C=C/c1cn(-c2ccccc2)nc1-c1ccc(OCc2ccccc2)cc1)c1ccc(C(F)(F)F)cc1` [Compound 5r, (E)-3-(3-(4-(benzyloxy)phenyl)-1-phenyl-1H-pyrazol-4-yl)-1-(4-(trifluoromethyl)Phenyl)prop-2-en-1-one], the melting point is 186 to 188 °C. For the same molecule, the IC50 in series [1] (MTT, cervical cancer) was greater than 50 µM. Besides, in series [2] (MTT, prostate cancer), the IC50 was greater than 50 µM. In addition, the inhibition at 10 µM in series [3] worked out at 31.5%. In addition, in series [4] (setting [6]), the IC50 is 38.3 ± 1.72 µM. For the same molecule, the IC50 in series [5] (setting [7]) was 14.8 ± 2.76 µM.

Consider `CC[C@]1(O)C[C@H]2CN(CCc3c([nH]c4ccccc34)[C@@](C(=O)OC)(c3cc4c(cc3OC)N(C=O)[C@H]3[C@@](O)(C(=O)OC)[C@H](OC(C)=O)[C@]5(CC)C=CCN6CC[C@]43[C@@H]65)C2)C1` [Vincristine, reference compound], for which, in series [3], the inhibition at 3 µM was 75.5%.

Turning to `O=C(/C=C/c1cn(-c2ccccc2)nc1-c1ccc(OCc2ccccc2)cc1)c1ccc([N+](=O)[O-])cc1` [Compound 5i, (E)-3-(3-(4-(benzyloxy)phenyl)-1-phenyl-1H-pyrazol-4-yl)-1-(4-nitrophenyl)prop-2-en-1-one], the melting point was 223 to 225 °C. In addition, the IC50 in series [1] (MTT, cervical cancer) came to 34.5 ± 0.9 µM. In series [2] (MTT, prostate cancer), the 50% inhibitory concentration (IC50) was 13.1 ± 1.6 µM. The inhibition at 10 µM in series [3] worked out at 28.4%. Further, the IC50 in series [4] (setting [6]) is 45.2 ± 2.6 µM. Moreover, the IC50 in series [5] (setting [7]) came out at 42.7 ± 0.34 µM.

As for `O=C(/C=C/c1cn(-c2ccccc2)nc1-c1ccc(OCc2ccccc2)cc1)c1cccc([N+](=O)[O-])c1` [Compound 5c, (E)-3-(3-(4-(benzyloxy)phenyl)-1-phenyl-1H-pyrazol-4-yl)-1-(3-nitrophenyl)prop-2-en-1-one], the melting point was in the range of 203 to 205 °C.

Regarding `O=C(/C=C/c1cn(-c2ccccc2)nc1-c1ccc(OCc2ccccc2)cc1)c1ccc(O)cc1` [Compound 5h, (E)-3-(3-(4-(benzyloxy)phenyl)-1-phenyl-1H-pyrazol-4-yl)-1-(4-hydroxyphenyl)prop-2-en-1-one], the melting point is 167 to 169 °C.

In turn, `O=C(/C=C/c1cn(-c2ccccc2)nc1-c1ccc(OCc2ccccc2)cc1)c1ccc(Cl)cc1Cl` [Compound 5m, (E)-3-(3-(4-(benzyloxy)phenyl)-1-phenyl-1H-pyrazol-4-yl)-1-(2,4dichlorophenyl)prop-2-en-1-one] had a melting point of 192 to 194 °C. Also, the IC50 in series [1] (MTT, cervical cancer) worked out at 6.46 ± 1.52 µM. The IC50 in series [2] (MTT, prostate cancer) came to 11.2 ± 1.44 µM. Moreover, the inhibition at 10 µM in series [3] stood at 33.8%. In addition, the half-maximal inhibitory concentration (IC50) in series [4] (setting [6]) is greater than 50 µM. Also, in series [5] (setting [7]), the IC50 was determined as 17.1 ± 2.25 µM.

The molecule `O=C(/C=C/c1cn(-c2ccccc2)nc1-c1ccc(OCc2ccccc2)cc1)c1ccc(Br)cc1` [Compound 5g, (E)-3-(3-(4-(benzyloxy)phenyl)-1-phenyl-1H-pyrazol-4-yl)-1-(4-bromophenyl)prop-2-en-1-one] showed a melting point of 178 to 180 °C.

In turn, `COc1ccc(C(=O)/C=C/c2cn(-c3ccccc3)nc2-c2ccc(OCc3ccccc3)cc2)c(OC)c1` [Compound 5p, (E)-3-(3-(4-(benzyloxy)phenyl)-1-phenyl-1H-pyrazol-4-yl)-1-(2,4-dimethoxyphenyl)prop-2-en-1-one] showed a melting point of 226 to 228 °C. Moreover, the IC50 in series [1] (MTT, cervical cancer) was 4.98 ± 0.54 µM. The IC50 in series [2] (MTT, prostate cancer) is 6.52 ± 1.23 µM. Besides, the inhibition at 10 µM in series [3] was determined as 51.1%. Moreover, in series [4] (setting [6]), the IC50 was greater than 50 µM. The IC50 in series [5] (setting [7]) turned out to be 3.45 ± 1.28 µM.

`COc1ccc(C(=O)/C=C/c2cn(-c3ccccc3)nc2-c2ccc(OCc3ccccc3)cc2)cc1` [Compound 5k, (E)-3-(3-(4-(benzyloxy)phenyl)-1-phenyl-1H-pyrazol-4-yl)-1-(4-methoxyphenyl)prop-2-en-1-one] returned a melting point of 187 to 189 °C. Also, the IC50 in series [1] (MTT, cervical cancer) was 5.65 ± 0.71 µM. Further, the IC50 in series [2] (MTT, prostate cancer) stood at 5.45 ± 0.94 µM. For the same molecule, the inhibition at 10 µM in series [3] was determined as 32.8%. Besides, in series [4] (setting [6]), the IC50 is greater than 50 µM. Further, the IC50 in series [5] (setting [7]) was found to be 7.23 ± 0.74 µM.

On to `O=C(/C=C/c1cn(-c2ccccc2)nc1-c1ccc(OCc2ccccc2)cc1)c1ccccc1Cl` [Compound 5b, (E)-3-(3-(4-(benzyloxy)phenyl)-1-phenyl-1H-pyrazol-4-yl)-1-(2-chlorophenyl)prop-2-en-1-one], for which the melting point was in the range of 182 to 184 °C.

`CC(=O)O[C@H]1C(=O)[C@@]2(C)[C@H]([C@H](OC(=O)c3ccccc3)[C@]3(O)C[C@H](OC(=O)[C@H](O)[C@@H](NC(=O)c4ccccc4)c4ccccc4)C(C)=C1C3(C)C)[C@]1(OC(C)=O)CO[C@@H]1C[C@@H]2O` [Paclitaxel, paclitaxel, reference compound]: in series [3], the inhibition at 3 µM is -25.7%.

`O=C(/C=C/c1cn(-c2ccccc2)nc1-c1ccc(OCc2ccccc2)cc1)c1ccc(F)cc1` [Compound 5f, (E)-3-(3-(4-(benzyloxy)phenyl)-1-phenyl-1H-pyrazol-4-yl)-1-(4-fluorophenyl)prop-2-en-1-one]: the melting point fell in the range of 168 to 170 °C.

Consider `COc1ccc(/C=C\c2cc(OC)c(OC)c(OC)c2)cc1O` [Combretastatin A-4, reference compound], for which the IC50 is 5.23 ± 0.85 µM in series [1]; 3.86 ± 0.39 µM in series [2]; 19.2 ± 1.65 µM in series [4] (Homo sapiens, HEK293, 48 h); 4.12 to 5.23 µM in series [5] (Homo sapiens, MCF7, 48 h, read-out: IC50 MCF-7, MTT, 48 h, breast cancer); 4.12 ± 0.38 µM in series [5] (read-out: IC50 MCF-7, MTT, 48 h, breast cancer, listed as CA-4).

As to `Cc1ccc(C(=O)/C=C/c2cn(-c3ccccc3)nc2-c2ccc(OCc3ccccc3)cc2)cc1` [Compound 5j, (E)-3-(3-(4-(benzyloxy)phenyl)-1-phenyl-1H-pyrazol-4-yl)-1-(p-tolyl)prop-2-en-1-one], the melting point was in the range of 205 to 207 °C.

In the case of `COc1ccc(C(=O)/C=C/c2cn(-c3ccccc3)nc2-c2ccc(OCc3ccccc3)cc2)cc1OC` [Compound 5o, (E)-3-(3-(4-(benzyloxy)phenyl)-1-phenyl-1H-pyrazol-4-yl)-1-(3,4-dimethoxyphenyl)prop-2-en-1-one], the melting point is 206 to 208 °C. For the same molecule, the IC50 in series [1] (MTT, cervical cancer) stood at 4.34 ± 0.98 µM. The half-inhibitory concentration (IC50) in series [2] (MTT, prostate cancer) stood at 4.46 ± 0.53 µM. Moreover, the inhibition at 10 µM in series [3] came to 66.4%. For the same molecule, the IC50 in series [4] (setting [6]) is greater than 50 µM. Besides, the “toxicity to the HEK cells” value in series [4] (in words) is recorded as “did not exhibit significant toxicity”. Besides, in series [5] (setting [7]), the IC50 was 2.13 ± 0.8 µM.

As for `O=C(/C=C/c1cn(-c2ccccc2)nc1-c1ccc(OCc2ccccc2)cc1)c1cccc(O)c1` [Compound 5d, (E)-3-(3-(4-(benzyloxy)phenyl)-1-phenyl-1H-pyrazol-4-yl)-1-(3-hydroxyphenyl)prop-2-en-1-one], the melting point lay in the range of 184 to 186 °C. Further, the IC50 in series [1] (MTT, cervical cancer) is 4.85 ± 0.89 µM. In addition, the half-inhibitory concentration (IC50) in series [2] (MTT, prostate cancer) is 2.97 ± 0.88 µM. Besides, in series [3], the inhibition at 10 µM is 49.8%. The IC50 in series [4] (setting [6]) is greater than 50 µM. Moreover, the IC50 in series [5] (setting [7]) is 4.1 ± 1.12 µM.

In turn, `COc1ccc(C(=O)/C=C/c2cn(-c3ccccc3)nc2-c2ccc(OCc3ccccc3)cc2)c(Br)c1` [Compound 5q, (E)-3-(3-(4-(benzyloxy)phenyl)-1-phenyl-1H-pyrazol-4-yl)-1-(2-bromo-4-methoxyphenyl)prop-2-en-1-one] returned a melting point of 174 to 176 °C.

Turning to `O=C(/C=C/c1cn(-c2ccccc2)nc1-c1ccc(OCc2ccccc2)cc1)c1ccc(Cl)cc1` [Compound 5e, (E)-3-(3-(4-(benzyloxy)phenyl)-1-phenyl-1H-pyrazol-4-yl)-1-(4-chlorophenyl)prop-2-en-1-one], the IC50 is 12.3 ± 1.32 µM in series [1] (MTT, cervical cancer); 9.68 ± 1.42 µM in series [2] (MTT, prostate cancer); greater than 50 µM in series [4] (setting [6]); 11.5 ± 1.62 µM in series [5] (setting [7]). Moreover, the inhibition at 10 µM in series [3] was 48.4%.
